How the values were obtained:
[1] = molecular target: T1, GST-JMJD2A(1-420) (Homo sapiens, UniProt O75164); experiment: Fluorescence polarization (FP) binding assay, JMJD2A; settings: 1 nM fluorophore, 2 h at room temperature, read-out: dissociation constant (Kd) to GST-JMJD2A(1-420)
T1 construct: Recombinant protein preparation of GASC1(1-420), JMJD2A (1-420) and LSD1 (full-length); made in house; host or cells: Escherichia coli BL-21
T1 sequence (O75164 1-420): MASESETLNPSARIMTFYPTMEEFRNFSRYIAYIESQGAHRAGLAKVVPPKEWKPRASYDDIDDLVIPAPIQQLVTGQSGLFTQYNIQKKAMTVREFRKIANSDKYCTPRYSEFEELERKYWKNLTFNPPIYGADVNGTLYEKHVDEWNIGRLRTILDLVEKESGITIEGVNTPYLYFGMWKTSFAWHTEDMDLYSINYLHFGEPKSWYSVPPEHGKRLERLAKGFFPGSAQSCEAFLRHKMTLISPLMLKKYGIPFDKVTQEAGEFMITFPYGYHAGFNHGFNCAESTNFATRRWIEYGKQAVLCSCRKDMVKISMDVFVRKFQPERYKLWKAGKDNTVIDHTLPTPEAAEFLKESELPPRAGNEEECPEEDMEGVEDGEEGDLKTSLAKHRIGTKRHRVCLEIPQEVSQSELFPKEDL
Description: (§1) To measure fluorescence polarization, a Perkin Elmer EnVision 2102 Multilabel plate reader equipped with FP-FITC optic module was used. Corning half-area, black, flat-bottom, polystyrene, 96-well plates (cat. #: 3993) were used for all FP studies. Auto-adjustment of focal height and gain was performed in the well containing 80 μL of 1 nM fluorophore 20, the recommended concentration of fluorescein for this plate reader.
(§2) The dissociation constant (Kd) for fluorophore 20 to GST-JMJD2A(1-420) was measured (See FIG. 8) by titrating 20 (1 nM) with purified JMJD2A using protocols reported by Rossi et al. in Nat. Protoc., 2011, 6(3), 365-87. Fluorescence intensity values in parallel (i.e., I11) and perpendicular (i.e., I⊥) planes for each well were measured after 2 h of incubation at room temperature. For each experimental measurement, the protein background was subtracted, and the polarization (P) was calculated using these corrected values of I11 and I⊥ from the equation: P=(I11−G·I⊥)/(I11+G·I⊥), where the G factor is derived from the instrument auto-adjustment step. […] The Kd for 20 and JHDM1A was determined as 30±5 nM in a similar fashion.

[2] = molecular target: T2, JHDM1A (Homo sapiens, UniProt Q9Y2K7); experiment: Fluorescence polarization (FP) binding assay, JHDM1A; settings: read-out: dissociation constant (Kd) to JHDM1A
T2 sequence (Q9Y2K7 1-1162): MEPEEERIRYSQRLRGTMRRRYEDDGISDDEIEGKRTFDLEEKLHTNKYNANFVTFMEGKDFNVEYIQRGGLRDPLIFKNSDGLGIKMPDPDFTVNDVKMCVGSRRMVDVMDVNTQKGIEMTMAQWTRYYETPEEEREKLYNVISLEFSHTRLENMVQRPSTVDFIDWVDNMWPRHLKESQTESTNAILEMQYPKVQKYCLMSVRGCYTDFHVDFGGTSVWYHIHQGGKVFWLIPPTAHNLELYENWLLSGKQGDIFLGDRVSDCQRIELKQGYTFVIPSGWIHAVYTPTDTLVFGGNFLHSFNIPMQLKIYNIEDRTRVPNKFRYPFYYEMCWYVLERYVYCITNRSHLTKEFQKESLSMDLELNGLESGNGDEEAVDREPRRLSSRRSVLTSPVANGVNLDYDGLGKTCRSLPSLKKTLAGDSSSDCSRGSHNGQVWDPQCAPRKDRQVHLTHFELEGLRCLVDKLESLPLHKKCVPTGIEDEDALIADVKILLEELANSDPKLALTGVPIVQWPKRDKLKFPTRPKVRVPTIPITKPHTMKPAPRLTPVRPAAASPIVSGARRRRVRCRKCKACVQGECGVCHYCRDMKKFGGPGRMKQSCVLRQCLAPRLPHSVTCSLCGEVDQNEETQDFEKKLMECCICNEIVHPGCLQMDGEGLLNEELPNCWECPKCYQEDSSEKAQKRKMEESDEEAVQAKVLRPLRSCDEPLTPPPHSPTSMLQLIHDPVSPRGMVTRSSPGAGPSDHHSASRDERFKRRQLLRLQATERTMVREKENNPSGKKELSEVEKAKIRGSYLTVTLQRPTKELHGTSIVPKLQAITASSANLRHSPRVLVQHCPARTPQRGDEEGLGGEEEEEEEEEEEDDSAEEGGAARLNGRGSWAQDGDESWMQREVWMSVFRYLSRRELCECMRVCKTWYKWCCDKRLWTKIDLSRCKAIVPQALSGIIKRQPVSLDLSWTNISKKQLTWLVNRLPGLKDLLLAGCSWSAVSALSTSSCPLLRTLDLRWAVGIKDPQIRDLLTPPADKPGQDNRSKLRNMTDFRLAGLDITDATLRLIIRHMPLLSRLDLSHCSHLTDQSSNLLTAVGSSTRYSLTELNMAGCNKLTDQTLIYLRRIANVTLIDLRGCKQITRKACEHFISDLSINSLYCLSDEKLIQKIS
Description: as §1, §2

[3] = test system: H3K4me3 and H3K9me3 levels in KYSE150 cells; experiment: Quantitative immunostaining assay of H3K4me3 and H3K9me3 in KYSE150 cells; type: cell-based, human; settings: 2.5 μM, 48 h
Description: To quantify the cellular activity of methylstat, a quantitative image-based assay was used. […] The cellular effects of methylstat were also cell type-specific.
For quantified immunostaining experiments, KYSE150 or MCF7 cells were seeded in a 96-well plate at 10,000 cells per well and incubated at 37° C. for 24 hours. The medium was replaced and methylstat in DMSO was added at the concentration as indicated. After incubation for another 48 hours, immunostaining procedure was performed as described above using anti-H3K9me3 or anti-H3K4me3 primary antibody. Fluorescent images of cells were acquired by a Nikon Eclipse 90i fluorescence microscope and analyzed using the Cell Scoring analysis module of MetaMorph 7.0 software.

[4] = test system: prolyl hydroxylases (PHDs); experiment: Cellular HIF-1α level (prolyl hydroxylase specificity) in MCF7 cells; type: cell-based, human; settings: 24 hours, methylstat up to 15 μM, DFO 150 μM, DMOG 1 and 2 mM
Description: To assess the specificity of methylstat in vivo, another iron(II)- and α-ketoglutarate-dependent dioxygenases, prolyl hydroxylases (PHDs), was examined. PHDs have been reported to regulate normoxic inactivation of hypoxia-inducible factors (HIFs) by hydroxylating specific prolyl residues of HIFs. […] DMOG and DFO have been used to mimic hypoxia conditions by inhibiting PHDs in vivo. […] Similar results were also observed in HeLa cells (see FIG. 7).
Total lysates of cells were generated from the cells lysed in CelLytic M Cell Lysis (Sigma) with protease inhibitor cocktail (Sigma), mixed with 2×LSB buffer (100 mM Tris-HCl pH 6.8, 200 mM DTT, 4% SDS, 20% glycerol and 0.2% bromophenol blue) and boiled for 5 min before SDS-PAGE. BCA assay (Thermo) was applied for protein qualification.

Compound	cellular activity in H3K4me3- and H3K9me3-immunostaining assays relative to methylstat [3]	cellular HIF-1α levels / prolyl hydroxylase inhibition [4]	also measured
NCc1ccc(CN(CCCCN(O)C(=O)/C=C/C(=O)O)C(=S)Nc2ccc(C3=C4C=CC(=O)C=C4Cc4cc(O)ccc43)c(C(=O)O)c2)cc1 [Compound 20]	–	–	Kd [1]: 175 ± 42 nM; Kd [2]: 30 ± 5 nM
COC(=O)C(=O)N(O)CCCCNCc1ccc(COC(=O)Nc2cccc3ccccc23)cc1 [Compound 23a]	significantly decreased cellular activity	–	–
COC(=O)/C=C/C(=O)N(O)CCCC[N+](C)(C)Cc1ccc(COC(=O)Nc2cccc3ccccc23)cc1.[I-] [Compound 23f]	reduced its activity	–	–
COC(=O)CNC(=O)C(=O)OC [DMOG, dimethyl oxalylglycine, reference compound]	–	significantly increased cellular levels of HIF-1α	–
deferoxamine mesylate salt [DFO, reference compound]	–	significantly increased cellular levels of HIF-1α	–

From patent US8735622B2, “Histone demethylase inhibitors and methods for using the same” (The Regents of the University of Colorado, a body corporate, priority 2011, dated 2014)
